Reference: ChEMBL document CHEMBL5620395, “Development and therapeutic potential of allosteric retinoic acid receptor-related orphan receptor γt (RORγt) inverse agonists for autoimmune diseases” (Eur J Med Chem, 2023)

Biological target: T1, Peroxisome proliferator-activated receptor gamma (Homo sapiens, UniProt P37231)
T1 sequence (P37231 whole entry): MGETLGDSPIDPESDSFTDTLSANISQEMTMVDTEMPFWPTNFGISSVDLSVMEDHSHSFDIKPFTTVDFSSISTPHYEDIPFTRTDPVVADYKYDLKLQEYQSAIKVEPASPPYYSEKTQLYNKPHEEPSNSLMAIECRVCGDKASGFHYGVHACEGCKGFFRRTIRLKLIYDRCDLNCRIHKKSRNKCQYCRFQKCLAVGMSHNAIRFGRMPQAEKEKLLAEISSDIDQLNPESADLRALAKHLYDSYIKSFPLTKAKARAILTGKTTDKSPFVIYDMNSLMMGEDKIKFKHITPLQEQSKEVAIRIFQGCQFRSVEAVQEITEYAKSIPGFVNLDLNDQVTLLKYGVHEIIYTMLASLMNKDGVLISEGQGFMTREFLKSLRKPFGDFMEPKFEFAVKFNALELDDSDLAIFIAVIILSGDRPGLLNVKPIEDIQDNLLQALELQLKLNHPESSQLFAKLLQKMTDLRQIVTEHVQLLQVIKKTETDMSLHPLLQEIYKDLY
Experiment: Inverse agonist activity at human his 6 tagged PPARgammaLBD incubated for 60 mins by TR-FRET assay
Conditions: not given

IC50 [µM] | Structure (SMILES)
> 100 | C[C@H](CCC(=O)NCCOCCOCCOCCOCCOCCOCCOCCOCCOCCOCCOCCOCCOCCOCCOCCNC(=O)c1ccc2c(-c3ccc(C(=O)O)cc3)nn(C(=O)c3c(Cl)cccc3C(F)(F)F)c2c1)[C@H]1CC[C@H]2[C@@H]3CC=C4C[C@@H](O)CC[C@]4(C)[C@H]3CC[C@]12C

Tested on: not listed separately
Experiment: Inhibition of IL-17a mRNA level in […] at 10 uM incubated for 24 hrs by RT-PCR analysis
Assay type: functional, cell-based
Conditions: el4

IC50 [µM] | Structure (SMILES)
0.11 | C[C@H](CCC(=O)NCCOCCOCCOCCOCCOCCOCCOCCOCCOCCOCCOCCOCCOCCOCCOCCNC(=O)c1ccc2c(-c3ccc(C(=O)O)cc3)nn(C(=O)c3c(Cl)cccc3C(F)(F)F)c2c1)[C@H]1CC[C@H]2[C@@H]3CC=C4C[C@@H](O)CC[C@]4(C)[C@H]3CC[C@]12C

Biological target: T2, Nuclear receptor ROR-gamma (Homo sapiens, UniProt P51449)
T2 sequence (P51449 whole entry): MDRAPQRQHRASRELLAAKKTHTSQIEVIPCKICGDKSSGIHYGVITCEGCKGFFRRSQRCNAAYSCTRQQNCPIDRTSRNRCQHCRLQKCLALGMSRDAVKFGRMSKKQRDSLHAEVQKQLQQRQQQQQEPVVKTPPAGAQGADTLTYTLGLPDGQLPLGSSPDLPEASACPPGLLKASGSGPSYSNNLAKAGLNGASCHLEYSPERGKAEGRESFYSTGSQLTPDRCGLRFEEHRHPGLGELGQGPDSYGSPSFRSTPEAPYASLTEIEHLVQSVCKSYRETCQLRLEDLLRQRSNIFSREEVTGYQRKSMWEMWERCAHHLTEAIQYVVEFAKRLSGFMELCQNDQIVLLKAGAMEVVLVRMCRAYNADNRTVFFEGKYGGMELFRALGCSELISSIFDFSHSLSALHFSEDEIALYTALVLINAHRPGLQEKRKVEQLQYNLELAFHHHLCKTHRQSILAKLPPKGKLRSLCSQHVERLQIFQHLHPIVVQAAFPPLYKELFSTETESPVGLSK
Experiment: Inhibition of RORgamma (unknown origin) incubated for 1 hr by TR-FRET method
Conditions: not given

Structure (SMILES) | IC50 [µM]
Cc1cc2c(s1)c(-c1ccc(C(=O)O)cc1F)nn2C(=O)c1c(F)cccc1C(F)(F)F | < 0.05
CN(C)C(=O)c1cc2c(s1)c(-c1ccc(C(=O)O)cc1F)nn2C(=O)c1c(F)cccc1C(F)(F)F | < 0.05
Cc1cc2c(s1)c(-c1ccc(C(=O)O)cc1)nn2C(=O)c1c(Cl)cccc1C(F)(F)F | < 0.05
Cc1cc2c(s1)c(-c1ccc(C(=O)O)cc1)nn2C(=O)c1c(C)cccc1Cl | < 0.05

Other lines, results leading:

IC50 [µM] | Structure (SMILES)
< 0.05 | Cc1cc2c(s1)c(-c1ccc(C(=O)O)cc1F)nn2C(=O)c1c(Cl)cccc1Cl
< 0.05 | Cc1cc2c(s1)c(-c1ccc(C(=O)O)c(F)c1)nn2C(=O)c1c(F)cccc1C(F)(F)F
< 0.05 | Cc1cc2c(s1)c(-c1ccc(C(=O)O)cc1)nn2C(=O)c1c(Cl)cccc1Br
< 0.05 | Cc1cc2c(s1)c(-c1ccc(C(=O)O)cc1F)nn2C(=O)c1c(Cl)cccc1C(F)(F)F
